Data set [1] in a line: xn = mol fraction of the nth substance listed. The following applies: 298.15 K, 86.6 kPa, Liquid; for speed of sound: Anton Parr, DSA 5000 densimeter and speed of sound analyzer; for mass density: Vibrating tube method.
The nature of data set [2]: refractive index (Na D-line) (dimensionless); xn = mol fraction of the nth substance listed. The following applies: 298.15 K, 86.6 kPa, Liquid, Standard Abbe refractometry.

± gives the expanded uncertainty stated by the source.

On to `O=C(O)CC(=O)O` [propanedioic acid] + C[N+](C)(C)CCO.[Cl-], for which, in data set [1] (x2 = 0.5), the speed of sound came to 1962.7 ± 1.7 m/s and the mass density is 1251.47 ± 0.54 kg/m3. The refractive index in data set [2] (x2 = 0.5) was 1.4887 ± 0.0005.
On to `NC(N)=O` [urea] + C[N+](C)(C)CCO.[Cl-], for which, in data set [1] (x2 = 0.333), the speed of sound turned out to be 2062.3 ± 2.2 m/s and the mass density is recorded as 1193.93 ± 0.94 kg/m3. Besides, the refractive index in data set [2] (x2 = 0.333) amounted to 1.5041 ± 0.0006.
As to `O=C(O)C(=O)O` [ethanedioic acid] + C[N+](C)(C)CCO.[Cl-], in data set [1] (x2 = 0.5), the speed of sound came out at 1925 ± 1.7 m/s and the mass density is listed as 1210.93 ± 0.5 kg/m3. Also, the refractive index in data set [2] (x2 = 0.5) was determined as 1.4809 ± 0.0005.

Source of the values: the NIST ThermoML archive (doi:10.1016/j.fluid.2018.01.017).
